19 molecules from patent US11702430B2, “Aza-benzothiophene compounds as STING agonists” (Merck Sharp & Dohme LLC, priority 2018, dated 2023) can be followed below.

One assay addresses T1, full-length HAQ STING (Homo sapiens, UniProt Q86WV6, G230A/H232R/R293Q/R71H).
T1 construct: made in house; host or cells: Trichoplusia ni (Hi-Five) insect cells, baculovirus; crude membrane preparation
The experiment in a line: 3H-cGAMP filtration binding assay (HAQ STING). The conditions noted are these: for EC50: competition with tritiated cGAMP ligand, HAQ STING membrane. The text has this: The ability of compounds to bind STING is quantified by the ability to compete with tritiated cGAMP ligand for human STING receptor membrane using a radioactive filter-binding assay. The binding assay employs STING receptor obtained from Hi-Five cell membranes overexpressing full-length HAQ STING prepared in-house and tritiated cGAMP ligand also purified in-house.
The ability of compounds to bind STING is quantified by their ability to compete with tritiated cGAMP ligand for human STING receptor membrane using a radioactive filter-binding assay. The binding assay employs STING receptor obtained from Trichoplusia ni cell membranes (T. ni; Expression Systems, cat #94-002F, www.expressionsystems.com) overexpressing full-length HAQ STING and tritiated cGAMP ligand.
The basic HAQ STING filtration assay protocol is as follows:
The compounds were serially titrated by the Hamilton STARPlus CORE in a 96-well plate (Greiner, #651201) using a 1:3 ten-point dose response format. After compound preparation, a 2.2 ug/ml working concentration of STING membrane (SEQ. ID. No. 1) was prepared by diluting concentrated membrane into assay buffer (lx PBS; Invitrogen #SH30028.02) and douncing 7× using a manual tissue homogenizer (Wheaton, #357546). 148 uL of prepared membrane was then manually added to each well of a 96-well deep-well polypropylene plate (Fisher Scientific, #12-566-121). Following membrane addition, 2 uL of either titrated test compound, DMSO control (Sigma #276855), or cold cGAMP control was added to the appropriate wells using a BIOMEK FX. Compound and membrane then preincubated for 60 min at RT to allow compound binding to equilibrate. Following equilibration, 8 nM of [^3H] c-GAMP ligand was prepared by diluting into assay buffer, and 50 uL of this working stock was then manually added to each well of the assay plate. Plates were then incubated at RT for 60 min, and the contents of each assay plate were then filtered through a 96-well GF/B filter plate (PerkinElmer, #6005250) using a TOMTEC MACH III Cell Harvester equipped with 20 mM HEPES buffer (Fisher Scientific, #BP299500). The filter plates were then dried at 55° C. for 30 min using a pressurized oven before 30 uL of ULTIMA GOLD F scintillate was added to each well. Tritium levels for each reaction well were then measured using a PerkinElmer TopCount plate reader.
After normalization to controls, the percent activity for each compound concentration was calculated by measuring the amount of remaining radioactivity. The plot of percent activity versus the log of compound concentration was fit with a 4-parameter dose response equation to calculate EC50 values.

Assay [1] concerns IFN-β secretion in THP1 cells. The experiment in a line: IFN-β secretion in THP1 cell culture (5 h). The format is cell-based. The conditions noted are these: Homo sapiens, THP-1, 5 h, 30 μM compound, cGAMP at 30 μM set at 100%, read-out: % Effect at 30 μM relative to 2′3′-cGAMP. The procedure:
The ability of compounds to stimulate the secretion of interferon-beta from THP1 cells was measured using a human IFN-β AlphaLISA kit (Perkin Elmer, Cat. No. AL265F). The basic protocol is as follows:
A Labcyte Echo 550 acoustic dispenser was used to transfer 120 nL of compound dissolved in DMSO into the wells of an empty, sterile 384-well microplate, (Corning, Cat. No. 3712). THP1 cells (American Type Culture Collection, Cat. No. TIB202) previously frozen in Recovery Medium (Life Technologies, Cat. No. 12648-010) were thawed and immediately diluted 10-fold into 37° C. assay medium (RPMI 1640+L-Glutamine & phenol red, Life Technologies, Cat. No. 11875-085; 0.5% heat inactivated fetal bovine serum, Sigma Aldrich, Cat. No. F4135; 1 mM Sodium Pyruvate, Life Technologies, Cat. No. 11360-070; lx non-essential amino acids; Life Technologies, Cat. No. 11140-050). The cell viability and count was ascertained using a Beckman Coulter V-Cell XR cell counter. The cells suspension was centrifuged at 200×g for 5 min at RT. Cells were resuspended to a density of 0.8×10^6/mL in 37° C. assay medium. Subsequent liquid transfers were performed using either a Matrix electronic multichannel pipette or an Agilent Bravo Automated Liquid Handling Platform.
The assay was started by dispensing 404, of the previously prepared cell suspension into the wells of the plate containing compounds. After 5 h incubation at 37° C., 5% CO2 in a humidified atmosphere, the plate of cells and compounds was centrifuged at 200×g for 5 min at RT. From each well, 54, of supernatant was transferred into corresponding wells of a white 384-well plate (Perkin Elmer, Cat. No. 6005620). To these supernatant-containing wells was added 10 μL of 5× Anti-Analyte Acceptor beads (50 μg/mL of AlphaLISA HiBlock Buffer) and incubated for 30 min at RT while shaking on an orbital plate shaker. To each well was added 104, of 5× Biotinylated Antibody Anti-analyte (5 nM in AlphaLISA HiBlock Buffer) and incubated on an orbital plate shaker for 60 min at RT or overnight at 4° C. To each well was added 254, of 2× SA-Donor beads (80 μg/mL in AlphaLISA HiBlock Buffer) and incubated for 30-45 min at RT in the dark while shaking on an orbital plate shaker. The plate was then read on a Perkin Elmer Envision (λex=680 nm, λem=[…]). The percent effect of the AlphaLISA signal at each compound concentration was calculated based on 30 uM cGAMP positive controls and 0.3% DMSO negative controls. The plot of percent effect versus the log of compound concentration was fit with a 4-parameter concentration response equation to calculate EC50 values. The test compounds were tested at concentrations 30000, 10000, 3333, 1111, 370.4, 123.4, 41.2, 13.7, 4.6, and 1.5 nM with 0.3% residual DMSO. The control compound, cGAMP was tested at concentrations 100000, 33333, 11111, 3704, 1235, 412, 137, 46, and 15 nM with 0.3% residual DMSO.

T1 sequence (Q86WV6 with tags, fused parts or gaps R71H/G230A/H232R/R293Q): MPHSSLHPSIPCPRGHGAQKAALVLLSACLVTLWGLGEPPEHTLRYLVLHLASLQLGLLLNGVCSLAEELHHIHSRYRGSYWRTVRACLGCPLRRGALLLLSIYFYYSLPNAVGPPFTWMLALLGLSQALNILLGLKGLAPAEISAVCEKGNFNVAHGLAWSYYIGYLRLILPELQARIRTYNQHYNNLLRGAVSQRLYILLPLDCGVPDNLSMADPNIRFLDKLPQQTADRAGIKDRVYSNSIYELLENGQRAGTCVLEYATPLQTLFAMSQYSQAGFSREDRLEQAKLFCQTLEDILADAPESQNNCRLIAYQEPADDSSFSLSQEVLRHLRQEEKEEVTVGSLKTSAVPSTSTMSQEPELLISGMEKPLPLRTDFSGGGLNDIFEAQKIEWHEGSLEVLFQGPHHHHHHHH

`COc1cc2nc(C(=O)CC(C)C(=O)O)sc2cc1OC` (single isomer, unassigned) [Example 2, 4-(5,6-Dimethoxy-1,3-benzothiazol-2-yl)-2-methyl-4-oxobutanoic Acid] returned an EC50 on full-length HAQ STING of 3.29 µM. Moreover, the activation at 30 µM in assay [1] turned out to be 94%.
As to `COc1cc2sc(C(=O)CC(C)C(=O)O)cc2nc1OC` (single isomer, unassigned) [Example 7, (R or S)-4-(5,6-Dimethoxythieno[3,2-b]pyridin-2-yl)-2-methyl-4-oxobutanoic acid], at full-length HAQ STING, it took 8.76 µM to reach a half-maximal effect (EC50). Moreover, the activation at 30 µM in assay [1] is 55%.
As to `COc1cc2sc(C(=O)CC(C)C(=O)O)cc2nc1OC` (single isomer, unassigned) [Example 8, (R or S)-4-(5,6-Dimethoxythieno[3,2-b]pyridin-2-yl)-2-methyl-4-oxobutanoic acid], the EC50 at full-length HAQ STING was 1.54 µM.
For `COc1cc2sc(C(=O)[C@H]3C[C@H]3C(=O)O)cc2nc1OC` (single isomer, unassigned) [Example 9, Cis-2-(5,6-dimethoxythieno[3,2-b]pyridine-2-carbonyl)cyclopropane-1-carboxylic Acid], on full-length HAQ STING, the EC50 was determined as 1.15 µM. Moreover, the activation at 30 µM in assay [1] is 100%.
`CCC(CC(=O)c1cc2nc(OC)c(OC)cc2s1)C(=O)O` (single isomer, unassigned) [Example 11, (R or S)-4-(5,6-Dimethoxythieno[3,2-b]pyridin-2-yl)-2-ethyl-4-oxobutanoic acid] returned an EC50 on full-length HAQ STING of 17.3 µM.
Same read-out and setting: under `CCC(CC(=O)c1cc2nc(OC)c(OC)cc2s1)C(=O)O` (single isomer, unassigned) [Example 12, (R or S)-4-(5,6-Dimethoxythieno[3,2-b]pyridin-2-yl)-2-ethyl-4-oxobutanoic acid] stands 1.75 µM.
As for `CCCC(CC(=O)c1cc2nc(OC)c(OC)cc2s1)C(=O)O` (single isomer, unassigned) [Example 13, (R or S)-2-(2-(5,6-Dimethoxythieno[3,2-b]pyridin-2-yl)-2-oxoethyl) pentanoic acid], the “percent reduction in binding of tritiated cGAMP at top concentration” value at full-length HAQ STING (at 20,000 nM (20 uM) compound, HAQ STING) is reported as 7% @ 20,000.
As to `CCCC(CC(=O)c1cc2nc(OC)c(OC)cc2s1)C(=O)O` (single isomer, unassigned) [Example 14, (R or S)-2-(2-(5,6-Dimethoxythieno[3,2-b]pyridin-2-yl)-2-oxoethyl) pentanoic acid], at full-length HAQ STING, the EC50 was determined as 1.39 µM. That is a single-digit micromolar value.
On to `CCC(CC(=O)c1cc2nc(OC)c(OC)nc2s1)C(=O)O` (single isomer, unassigned) [Example 17, (R or S)-4-(2,3-Dimethoxythieno[2,3-b]pyrazin-6-yl)-2-ethyl-4-oxobutanoic Acid], for which, on full-length HAQ STING, the response was half-maximal at 2.71 µM (EC50). The activation at 30 µM in assay [1] came out at 116%.
At full-length HAQ STING, `COc1nc2cc(C(=O)CC(C)C(=O)O)sc2nc1OC` (single isomer, unassigned) [Example 18, (R or S)-4-(2,3-Dimethoxythieno[2,3-b]pyrazin-6-yl)-2-methyl-4-oxobutanoic Acid] showed a concentration for a half-maximal effect (EC50) of 4.5 µM. The activation at 30 µM in assay [1] was found to be 77%.
For `COc1cc2nc(C(=O)CCC(=O)O)sc2cc1OC` [Example 1, 4-(5,6-Dimethoxybenzo[d]thiazol-2-yl)-4-oxobutanoic Acid], the EC50 at full-length HAQ STING is 13.3 µM. The activation at 30 µM in assay [1] came out at 56%.
As to `COc1cc2sc(C(=O)C[C@H](C)C(=O)O)nc2cc1Br` [Example 3, (S)-4-(5-Bromo-6-methoxybenzo[d]thiazol-2-yl)-2-methyl-4-oxobutanoic Acid], the EC50 at full-length HAQ STING was 10.6 µM. In addition, in assay [1], the activation at 30 µM was 11%.
On the same counts, the results for `COc1cc2sc(C(=O)CC(C)C(=O)O)nc2c(F)c1OC` (stereo not drawn) [Example 4, 4-(4-Fluoro-5,6-dimethoxybenzo[d]thiazol-2-yl)-2-methyl-4-oxobutanoic Acid] are 6.79 µM and 19%.
For the molecule `COc1cc2cc(C(=O)CCC(=O)O)sc2nc1OC` [Example 5, 4-(5,6-Dimethoxythieno[2,3-b]pyridin-2-yl)-4-oxobutanoic Acid], the response on full-length HAQ STING was half-maximal at 5.51 µM (EC50). In assay [1], the activation at 30 µM was 146%.
For the molecule `COc1cc2sc(C(=O)CCC(=O)O)cc2nc1OC` [Example 6], a half-maximal response on full-length HAQ STING (EC50) required 2.44 µM. Further, the activation at 30 µM in assay [1] worked out at 107%.
For `COc1cc2sc(C(=O)C[C@H](C)C(=O)O)cc2nc1Cl` [Example 10, (S)-4-(5-Chloro-6-methoxythieno[3,2-b]pyridin-2-yl)-2-methyl-4-oxobutanoic Acid] the same measures were 0.637 µM and 70%.
In turn, `COc1nc2cc(C(=O)CCC(=O)O)sc2cc1Br` [Example 15, 4-(6-Bromo-5-methoxythieno[3,2-b]pyridin-2-yl)-4-oxobutanoic Acid] had an EC50 at full-length HAQ STING of 2.45 µM. Further, the activation at 30 µM in assay [1] was 142%.
For `COc1nc2cc(C(=O)CCC(=O)O)sc2nc1OC` [Example 16, 4-(2,3-Dimethoxythieno[2,3-b]pyrazin-6-yl)-4-oxobutanoic Acid] the same measures were 9.57 µM and 108%.
On full-length HAQ STING, `COc1cc2sc(C(=O)C[C@H](C)C(=O)O)nc2nc1OC` [Example 19, (S)-4-(5,6-Dimethoxythiazolo[4,5-b]pyridin-2-yl)-2-methyl-4-oxobutanoic Acid] yielded an EC50 of 10.1 µM. In addition, the activation at 30 µM in assay [1] stood at 14%.

Usually EC50 stands for the midpoint of the concentration-response curve. A low value points to a more potent agent.
